# Reference: ChEMBL document CHEMBL1649214, “Antimalarial activity of tigecycline, a novel glycylcycline antibiotic” (Antimicrob Agents Chemother, 2009)
# Key:
# [1] = tested on: Plasmodium falciparum; experiment: Antimalarial activity against Plasmodium falciparum isolates assessed as parasite growth inhibition after 72 hrs by ELISA based histidine-rich protein 2 in vitro drug susceptibility assay; type: functional, organism-based
# [2] = tested on: Plasmodium falciparum; experiment: Ratio of IC50 for Plasmodium falciparum isolates after 72 hrs to IC50 for Plasmodium falciparum isolates after 24 hrs by ELISA based histidine-rich protein 2 in vitro drug susceptibility assay; type: functional
Compound,IC50 [1] [nM],IC90 [1] [nM],IC99 [1] [µM],Ratio IC50 [2]
C[C@H]1[C@@H](O)O[C@@H]2O[C@@]3(C)CC[C@H]4[C@H](C)CC[C@@H]1[C@@]24OO3 [ARTENIMOL],0.77,2.76,0.004,
CC[C@H]1OC(=O)[C@H](C)[C@@H](O[C@H]2C[C@@](C)(OC)[C@@H](O)[C@H](C)O2)[C@H](C)[C@@H](O[C@@H]2O[C@H](C)C[C@H](N(C)C)[C@H]2O)[C@](C)(O)C[C@@H](C)CN(C)[C@H](C)[C@@H](O)[C@]1(C)O [AZITHROMYCIN],4310,18400,26.7,
CCN(CC)CCCC(C)Nc1ccnc2cc(Cl)ccc12 (configuration not stated) [CHLOROQUINE],,303,0.436,
C[C@H]1c2cccc(O)c2C(=O)C2=C(O)[C@]3(O)C(=O)C(C(N)=O)=C(O)[C@@H](N(C)C)[C@@H]3[C@@H](O)[C@@H]21.O [DOXYCYCLINE],4280,19400,27.2,13
OC(c1cc(C(F)(F)F)nc2c(C(F)(F)F)cccc12)C1CCCCN1 (configuration not stated) [MEFLOQUINE],14.4,64,0.106,
C=C[C@H]1CN2CC[C@H]1C[C@H]2[C@H](O)c1ccnc2ccc(OC)cc12 [QUININE],106,441,0.673,
CN(C)c1cc(NC(=O)CNC(C)(C)C)c(O)c2c1C[C@H]1C[C@H]3[C@H](N(C)C)C(O)=C(C(N)=O)C(=O)[C@@]3(O)C(O)=C1C2=O [TIGECYCLINE],699,5910,12.4,49
